Measurements taken from publication PMC4700476, “Differential regulation by AMP and ADP of AMPK complexes containing different γ subunit isoforms” (Biochemical Journal, 2016).
“And” between values parts separate entries of the source, which are not always exact repeats. Equal values may be shown once.

Key:
[1] = molecular target: T1, AMPK γ2 complex (dephosphorylated, FLAG-tagged human γ2) (Homo sapiens, UniProt Q13131+Q9UGJ0); assay: Promotion of LKB1-dependent activation and Thr172 phosphorylation; type: biochemical; settings: ADP 1 mM, 5 mM ATP
T1 construct: would have predominantly been the α1β2γ1, α1β2γ2 or α1β2γ3 complexes; expressed in transfected cells; host or cells: HEK-293 (Flp recombinase target site, tetracycline-inducible); anti-FLAG immunoprecipitate
T1 sequence (Q9UGJ0 whole entry): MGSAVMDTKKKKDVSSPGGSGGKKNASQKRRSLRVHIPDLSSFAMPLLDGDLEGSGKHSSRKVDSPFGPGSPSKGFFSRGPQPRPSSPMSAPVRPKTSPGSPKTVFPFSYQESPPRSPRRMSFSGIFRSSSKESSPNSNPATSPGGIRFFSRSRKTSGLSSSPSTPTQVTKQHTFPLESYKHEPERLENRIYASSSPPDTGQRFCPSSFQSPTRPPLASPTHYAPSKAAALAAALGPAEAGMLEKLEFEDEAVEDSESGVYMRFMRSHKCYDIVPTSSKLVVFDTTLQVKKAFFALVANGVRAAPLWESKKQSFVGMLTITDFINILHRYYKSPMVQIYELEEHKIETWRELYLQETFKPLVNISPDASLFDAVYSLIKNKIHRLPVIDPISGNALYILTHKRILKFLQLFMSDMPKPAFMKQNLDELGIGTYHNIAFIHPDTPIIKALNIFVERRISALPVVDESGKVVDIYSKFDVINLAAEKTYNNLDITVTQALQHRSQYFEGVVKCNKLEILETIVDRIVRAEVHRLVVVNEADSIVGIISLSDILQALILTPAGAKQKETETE
T1 sequence (Q13131 whole entry): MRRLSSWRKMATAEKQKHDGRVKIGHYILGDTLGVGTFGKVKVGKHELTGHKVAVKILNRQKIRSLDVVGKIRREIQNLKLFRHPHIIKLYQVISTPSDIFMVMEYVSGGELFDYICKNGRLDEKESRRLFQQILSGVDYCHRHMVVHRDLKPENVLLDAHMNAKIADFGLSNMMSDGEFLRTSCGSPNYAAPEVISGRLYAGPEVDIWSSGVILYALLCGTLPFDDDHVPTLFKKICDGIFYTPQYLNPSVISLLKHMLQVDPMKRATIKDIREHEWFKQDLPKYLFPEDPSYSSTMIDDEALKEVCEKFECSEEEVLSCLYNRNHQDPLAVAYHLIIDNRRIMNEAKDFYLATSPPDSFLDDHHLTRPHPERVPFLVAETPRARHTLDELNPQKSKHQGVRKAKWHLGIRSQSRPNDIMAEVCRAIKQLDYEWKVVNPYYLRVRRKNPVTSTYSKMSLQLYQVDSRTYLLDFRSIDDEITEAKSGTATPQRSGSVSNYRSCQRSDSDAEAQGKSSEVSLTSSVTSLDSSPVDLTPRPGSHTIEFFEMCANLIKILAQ
T1 sequence (O43741 whole entry partner): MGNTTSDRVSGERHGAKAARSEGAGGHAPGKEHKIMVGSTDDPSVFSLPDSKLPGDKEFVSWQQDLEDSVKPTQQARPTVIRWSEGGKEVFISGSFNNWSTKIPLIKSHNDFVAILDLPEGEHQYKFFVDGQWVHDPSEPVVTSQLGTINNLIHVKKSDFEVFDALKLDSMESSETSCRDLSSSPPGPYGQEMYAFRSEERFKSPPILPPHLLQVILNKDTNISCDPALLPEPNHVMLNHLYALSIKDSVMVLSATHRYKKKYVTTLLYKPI
Procedure: (§1) Cell lysates (140, 500 and 2000 μg of lysate protein for γ1, γ2 and γ3 respectively) were incubated with 100 μl of EZview Red anti-FLAG M2 affinity gel, immunoprecipitated and washed as described previously. The IPs were resuspended in 100 μl of Hepes assay buffer and incubated in an orbital incubator with PP1γ (55 μg in 10 μl) in Hepes assay buffer for 30 min at 30°C. The dephosphorylation reactions were stopped by washing the IPs three times in Hepes assay buffer. The precipitates were then resuspended in 1 ml of Hepes assay buffer and divided into 100-μl aliquots. After centrifugation, 75 μl of each supernatant was removed, 5 μl of okadaic acid (final concentration 25 μM) was added and incubation continued for 5 min at 30°C. After this, AMP or ADP and LKB1 were added as specified and the reaction started by adding a mixture of MgCl2 (final concentration 9.8 mM) and ATP (final concentration 5 mM). Incubation was for 10 min at 30°C, after which the reactions were stopped by washing the IPs three times in Hepes assay buffer. They were resuspended in 400 μl of assay buffer and split for assays and analysis by Western blotting.
(§2) We next tested whether AMP promoted Thr^172 phosphorylation by LKB1, using complexes containing γ1, γ2 or γ3 expressed in HEK-293 cells and isolated using anti-FLAG antibody. The IPs were treated with the protein phosphatase-1 catalytic subunit (PP1γ) to remove phosphate from Thr^172, were washed to remove PP1γ, and okadaic acid was added to block the activity of any residual phosphatase. They were then treated with limiting quantities of LKB1 in the presence of 5 mM ATP (to mimic physiological conditions), with or without 1 mM AMP.
(§3) Figure 5 Effect of AMP on activation and Thr^172 phosphorylation of AMPK-γ isoforms induced by upstream kinases (A) Effect of a limiting quantity of LKB1, with or without AMP (1 mM), on AMPK activity. Anti-FLAG IPs from AMPK-γ1-, -γ2- or -γ3-expressing cells were treated with PP1γ to bring about complete dephosphorylation of Thr^172. PP1γ was removed by washing and okadaic acid was added to ensure complete inhibition of any residual phosphatase. The IPs were then incubated for 10 min with 5 mM ATP with or without LKB1 (1 μg) and with or without 1 mM AMP. […] (B) Effect of different concentrations of AMP on activation and Thr^172 phosphorylation of the AMPK-γ1 complex. Experiment as in (A) except using various concentrations of AMP in the presence of 5 mM ATP. Results in the upper panel (means ± S.E.M., n=6) are expressed relative to the control without AMP. Results were fitted to the equation: Y=1+[(activation–1) × X]/(EC50+X), where Y is the relative activity, X is the concentration of AMP, activation is the predicted maximal activation, and EC50 is the concentration of AMP causing half-maximal activation. The continuous line is the curve generated using this equation with the parameters quoted in the text. […] (C) As (A), except that we also tested the effects of 1 mM AMP on activation by CaMKKβ as well as LKB1. The amount of CaMKKβ added (0.34 μg) yielded a similar limited degree of activation to LKB1.
(§4) Figure 6 Effect of ADP on activation and Thr^172 phosphorylation of AMPK-γ isoforms induced by upstream kinases (A) Effect of AMP or ADP on activation of γ1-, γ2- or γ3-containing AMPK complexes induced by LKB1 in the presence of 5 mM ATP. Dephosphorylated AMPK complexes were generated as in Figure 3(A) and were incubated for 10 min with LKB1 with or without AMP (300 μM), ADP (1 mM) or the 5′-nucleotidase CD73 (0.86 μg). […] (B) Duplicate blots from the experiment shown in (A). (C) Effect of ADP on activation of AMPK-γ1 complexes by LKB1 in the presence of 5 mM ATP. The experiment was performed as in (A) except with various concentrations of ADP. Results (means ± S.E.M., n=3) are expressed relative to the basal activity in the absence of ADP and were fitted to the equation used for Figure 3(B). […]

[2] = tested on: AMPK γ1 complex (dephosphorylated, FLAG-tagged human γ1); assay: as above; type: biochemical; settings: 5 mM ATP, imprecise estimate, read-out: IC50 for the inhibitory effect on activation by LKB1
Procedure: as §1, §2, §3, §4

[3] = molecular target: T2, AMPK γ3 complex (dephosphorylated, FLAG-tagged human γ3) (Homo sapiens, UniProt Q13131+Q9UGI9); assay: as above; type: biochemical; settings: ADP 1 mM, 5 mM ATP
T2 construct: would have predominantly been the α1β2γ1, α1β2γ2 or α1β2γ3 complexes; expressed in transfected cells; host or cells: HEK-293 (Flp recombinase target site, tetracycline-inducible); anti-FLAG immunoprecipitate
T2 sequence (Q9UGI9 whole entry): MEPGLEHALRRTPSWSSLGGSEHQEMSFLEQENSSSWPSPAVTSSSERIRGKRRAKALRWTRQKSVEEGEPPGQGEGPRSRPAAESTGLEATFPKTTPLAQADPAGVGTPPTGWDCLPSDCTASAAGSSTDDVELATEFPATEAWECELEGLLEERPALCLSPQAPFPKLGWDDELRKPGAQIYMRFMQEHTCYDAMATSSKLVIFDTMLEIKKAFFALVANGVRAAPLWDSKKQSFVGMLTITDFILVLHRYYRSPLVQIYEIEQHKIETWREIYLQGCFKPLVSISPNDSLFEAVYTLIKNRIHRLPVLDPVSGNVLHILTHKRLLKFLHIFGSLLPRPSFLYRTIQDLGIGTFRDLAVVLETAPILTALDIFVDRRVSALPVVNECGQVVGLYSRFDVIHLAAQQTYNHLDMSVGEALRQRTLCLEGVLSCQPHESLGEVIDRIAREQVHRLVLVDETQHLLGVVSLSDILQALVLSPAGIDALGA
T2 sequence (Q13131 whole entry): as the sequence (Q13131 whole entry) above
T2 sequence (O43741 whole entry partner): as the sequence (O43741 whole entry partner) above
Procedure: as §1, §2, §3, §4

[4] = molecular target: T3, AMPK γ1 complex (dephosphorylated, FLAG-tagged human γ1) (Homo sapiens, UniProt P54619+Q13131); assay: as above; type: biochemical; settings: 5 mM ATP
T3 construct: would have predominantly been the α1β2γ1, α1β2γ2 or α1β2γ3 complexes; expressed in transfected cells; host or cells: HEK-293 (Flp recombinase target site, tetracycline-inducible); anti-FLAG immunoprecipitate
T3 sequence (P54619 whole entry): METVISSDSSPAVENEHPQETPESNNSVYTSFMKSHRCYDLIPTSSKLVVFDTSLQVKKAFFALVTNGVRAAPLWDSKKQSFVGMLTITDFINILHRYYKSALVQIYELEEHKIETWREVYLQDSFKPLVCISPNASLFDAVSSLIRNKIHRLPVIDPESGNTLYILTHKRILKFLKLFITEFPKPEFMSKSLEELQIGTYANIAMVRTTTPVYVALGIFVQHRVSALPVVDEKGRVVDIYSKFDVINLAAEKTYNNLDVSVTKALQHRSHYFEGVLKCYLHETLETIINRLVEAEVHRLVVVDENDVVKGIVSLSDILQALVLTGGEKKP
T3 sequence (Q13131 whole entry): as the sequence (Q13131 whole entry) above
T3 sequence (O43741 whole entry partner): as the sequence (O43741 whole entry partner) above
Procedure: as §1, §2, §3, §4

[5] = molecular target: T4, AMPK γ1 complex (FLAG-tagged human γ1) (Homo sapiens, UniProt P54619+Q13131); assay: Protection against inactivation and Thr172 dephosphorylation by PP2Cα; type: biochemical; settings: 5 mM ATP, read-out: half-maximal effect for protection against inactivation by PP2Cα
T4 construct: would have predominantly been the α1β2γ1, α1β2γ2 or α1β2γ3 complexes; expressed in transfected cells; host or cells: HEK-293 (Flp recombinase target site, tetracycline-inducible); anti-FLAG immunoprecipitate
T4 sequence (P54619 whole entry): as the sequence (P54619 whole entry) above
T4 sequence (Q13131 whole entry): as the sequence (Q13131 whole entry) above
T4 sequence (O43741 whole entry partner): as the sequence (O43741 whole entry partner) above
Procedure: (§5) AMPK was activated by incubating the cells in phenformin (10 mM) for 60 min prior to cell lysis. Cell lysates (225, 225 and 455 μg of lysate protein for γ1, γ2 and γ3 respectively) were incubated with 100 μl of EZview Red anti-FLAG M2 affinity gel beads at 4°C for 2 h on a roller mixer. The beads were washed twice with 1 ml of immunoprecipitation buffer and twice with 1 ml of Hepes assay buffer, resuspended in 1 ml of assay buffer and divided into 100-μl aliquots. The beads were recovered by centrifugation and 75 μl of the supernatant removed. In a final volume of 50 μl, AMP, ADP (as specified), ATP (5 mM) and PP2Cα (1.5 μg) were added and the reaction was started by adding MgCl2 (9.8 mM) to activate PP2Cα; the reactions were then conducted in a shaking incubator at 30°C for 10 min. They were stopped by washing the beads three times in assay buffer, resuspending them in 400 μl of assay buffer and dividing them into aliquots for kinase assays and analysis by Western blotting.
(§6) Finally, we addressed the effects of AMP and ADP on the dephosphorylation of γ1, γ2 and γ3 complexes by the protein phosphatase PP2Cα. Cells expressing γ1, γ2 or γ3 complexes were treated with phenformin to promote Thr^172 phosphorylation, the complexes were then isolated by immunoprecipitation and equal amounts (based on anti-FLAG blots) were treated with a limiting quantity of PP2Cα in the presence of increasing concentrations of AMP or ADP. As before, in order to simulate physiological conditions, these assays were performed in the presence of 5 mM ATP. […] The similar effects of AMP on all three complexes were confirmed by Western blot analysis using anti-pThr^172 antibodies (lower panel). The effects of ADP are shown in Figure 7(B); similar to results previously obtained with rat liver AMPK [28]
(§7) Figure 7 Effect of AMP and ADP on protection against Thr^172 dephosphorylation, measured at 5 mM ATP (A) […], -γ2 or -γ3 complexes were immunoprecipitated from cells treated with phenformin to cause maximal Thr^172 phosphorylation. The IPs were then incubated for 10 min with the protein phosphatase PP2Cα in the presence of 5 mM ATP and various concentrations of AMP. Inactivation was assessed by kinase assays (top panel) and Thr^172 dephosphorylation by Western blot (bottom panels). Results (means ± S.E.M., n=2) in the top panel are shown as percentage protection, which is the inactivation compared with control (without AMP), expressed as a percentage of the inactivation compared with control at the highest concentration of AMP used. Results were fitted to the equation Y=100 × X/(EC50+X) where Y is the percentage protection, X is the concentration of AMP, and EC50 is the concentration of AMP causing half-maximal protection. The continuous lines are the curves generated using this equation using the best-fit parameters quoted in the text. […] (B) As (A), but varying ADP in place of AMP.

[6] = molecular target: T5, AMPK γ2 complex (FLAG-tagged human γ2) (Homo sapiens, UniProt Q13131+Q9UGJ0); assay: as above; type: biochemical; settings: 5 mM ATP, read-out: half-maximal effect for protection against inactivation by PP2Cα
T5 construct: would have predominantly been the α1β2γ1, α1β2γ2 or α1β2γ3 complexes; expressed in transfected cells; host or cells: HEK-293 (Flp recombinase target site, tetracycline-inducible); anti-FLAG immunoprecipitate
T5 sequence (Q9UGJ0 whole entry): as the sequence (Q9UGJ0 whole entry) above
T5 sequence (Q13131 whole entry): as the sequence (Q13131 whole entry) above
T5 sequence (O43741 whole entry partner): as the sequence (O43741 whole entry partner) above
Procedure: as §5, §6, §7

[7] = molecular target: T6, AMPK γ3 complex (FLAG-tagged human γ3) (Homo sapiens, UniProt Q13131+Q9UGI9); assay: as above; type: biochemical; settings: 5 mM ATP, read-out: half-maximal effect for protection against inactivation by PP2Cα
T6 construct: would have predominantly been the α1β2γ1, α1β2γ2 or α1β2γ3 complexes; expressed in transfected cells; host or cells: HEK-293 (Flp recombinase target site, tetracycline-inducible); anti-FLAG immunoprecipitate
T6 sequence (Q9UGI9 whole entry): as the sequence (Q9UGI9 whole entry) above
T6 sequence (Q13131 whole entry): as the sequence (Q13131 whole entry) above
T6 sequence (O43741 whole entry partner): as the sequence (O43741 whole entry partner) above
Procedure: as §5, §6, §7

[8] = tested on: γ3-containing AMPK complexes in mouse skeletal muscle; set-up: method as in PMID 25695398; settings: cited from earlier work
[9] = tested on: γ2-containing AMPK complexes in HEK-293 cells expressing FLAG–γ2; set-up: method as in PMID 25695398; settings: anti-FLAG IP; cited from earlier work
[10] = tested on: γ1-containing AMPK complexes in mouse skeletal muscle; set-up: method as in PMID 25695398; settings: cited from earlier work
[11] = tested on: γ1-containing AMPK complexes in HEK-293 cells expressing FLAG–γ1; set-up: method as in PMID 25695398; settings: anti-FLAG IP; cited from earlier work
[12] = tested on: γ3-containing AMPK complexes in HEK-293 cells expressing FLAG–γ3; set-up: method as in PMID 25695398; settings: anti-FLAG IP; cited from earlier work
[13] = tested on: glucose uptake; set-up: method as in PMID 25695398; settings: mouse skeletal muscle; cited from earlier work

| effect on activation by LKB1 [1] | IC50 [2] | effect on activation by LKB1 [3] | EC50 ([4]; imprecise estimate, read-out: EC50 for the activating effect on activation by LKB1) | stimulation of activation caused by Thr172 phosphorylation by LKB1 ([4]; ADP) | activation (best-fit, promotion of activation by LKB1) ([4]; various ADP, constrained to be 5-fold or less, confidence limits extremely wide) | EC50 [5] | EC50 [6] | EC50 [7] | Structure (SMILES) | activation of γ3-containing complexes [8] | activation of complex in HEK-293 cells [9] | activation of γ1-containing complexes [10] | activation of complex in HEK-293 cells [11] | activation of complex in HEK-293 cells [12] | glucose uptake [13] |
| --- | --- | --- | --- | --- | --- | --- | --- | --- | --- | --- | --- | --- | --- | --- | --- |
| not significant | 6800 ± 3100 µM | not significant | 1800 µM and ≥ 1000 µM | ~2 fold | 5 fold | 910 ± 70 µM | 180 ± 20 µM | 980 ± 150 µM | Nc1ncnc2c1ncn2[C@@H]1O[C@H](COP(=O)(O)OP(=O)(O)O)[C@@H](O)[C@H]1O [ADP] | – | – | – | – | – | – |
| – | – | – | – | – | – | – | – | – | Cc1cc(-c2ccc(/C=C3/SC(=Nc4ccc(Cl)c(C(=O)O)c4)NC3=O)o2)c([N+](=O)[O-])cc1C [PT-1] | not | all three complexes were activated | activates | all three complexes were activated | all three complexes were activated | did not promote glucose uptake |
